# Laboratory results reported in ChEMBL document CHEMBL1147438, “Discovery of novel aspartyl ketone dipeptides as potent and selective caspase-3 inhibitors” (Bioorg Med Chem Lett, 2004).
# How the values were obtained:
# [1] = target: T1, Caspase-7 (Homo sapiens, UniProt P55210); test: Inhibitory activity against caspase-7
# T1 sequence (P55210 whole entry): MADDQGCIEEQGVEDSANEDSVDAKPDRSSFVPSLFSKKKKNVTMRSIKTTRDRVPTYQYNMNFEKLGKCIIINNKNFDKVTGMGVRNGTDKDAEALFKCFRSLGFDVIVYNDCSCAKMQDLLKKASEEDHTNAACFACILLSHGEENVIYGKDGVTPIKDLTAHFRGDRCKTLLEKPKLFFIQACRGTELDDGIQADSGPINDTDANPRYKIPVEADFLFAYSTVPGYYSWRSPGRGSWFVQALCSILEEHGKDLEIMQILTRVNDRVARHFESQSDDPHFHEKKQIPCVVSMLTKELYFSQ
# [2] = target: T2, Caspase-1 (Homo sapiens, UniProt P29466); test: Inhibitory activity against caspase-1
# T2 sequence (P29466 whole entry): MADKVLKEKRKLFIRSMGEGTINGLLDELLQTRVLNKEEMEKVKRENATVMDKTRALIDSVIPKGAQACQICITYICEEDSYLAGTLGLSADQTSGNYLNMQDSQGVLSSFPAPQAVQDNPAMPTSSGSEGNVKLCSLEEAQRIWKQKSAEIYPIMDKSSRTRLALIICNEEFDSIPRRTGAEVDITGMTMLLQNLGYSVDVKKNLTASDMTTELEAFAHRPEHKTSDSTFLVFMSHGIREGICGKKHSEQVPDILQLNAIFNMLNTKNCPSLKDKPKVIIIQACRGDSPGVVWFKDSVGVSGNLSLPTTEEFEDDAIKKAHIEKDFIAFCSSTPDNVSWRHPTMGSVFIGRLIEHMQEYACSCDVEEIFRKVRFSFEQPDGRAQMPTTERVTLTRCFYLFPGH
# [3] = target: Caspase-8 (Homo sapiens, UniProt Q14790); test: Inhibitory activity against caspase-8
# [4] = target: T3, Caspase-3 (Homo sapiens, UniProt P42574); test: Inhibitory activity against caspase-3
# T3 sequence (P42574 whole entry): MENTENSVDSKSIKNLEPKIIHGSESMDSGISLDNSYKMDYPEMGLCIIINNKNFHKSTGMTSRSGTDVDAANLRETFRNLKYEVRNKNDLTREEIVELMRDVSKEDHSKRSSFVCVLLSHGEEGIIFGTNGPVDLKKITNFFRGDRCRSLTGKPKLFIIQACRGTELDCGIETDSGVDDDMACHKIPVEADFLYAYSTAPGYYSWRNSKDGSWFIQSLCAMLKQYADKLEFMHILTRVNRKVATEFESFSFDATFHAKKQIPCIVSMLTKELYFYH
# [5] = system: NT2; test: Inhibitory activity against NT2 cells; type: functional, cell-based; details: Homo sapiens
# Caspase-8, sequence (Q14790 217-374 limits assumed): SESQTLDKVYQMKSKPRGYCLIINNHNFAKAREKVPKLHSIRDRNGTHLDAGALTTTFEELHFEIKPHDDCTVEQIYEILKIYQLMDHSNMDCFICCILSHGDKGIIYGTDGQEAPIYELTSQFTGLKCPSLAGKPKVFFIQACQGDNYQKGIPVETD
# Caspase-8, sequence (Q14790 385-479 limits assumed): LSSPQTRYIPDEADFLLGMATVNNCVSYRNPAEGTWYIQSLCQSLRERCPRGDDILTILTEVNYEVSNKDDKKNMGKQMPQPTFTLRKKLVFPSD
SMILES,IC50 [1] [nM],IC50 [2] [nM],IC50 [3] [nM],IC50 [4] [nM],IC50 [5] [nM]
COc1ccccc1CC(=O)N[C@H](C(=O)N[C@@H](CC(=O)O)C(=O)CSCc1ccccc1)C(C)C,2700,28000,15500,310,–
COc1ccc(OC)c(CC(=O)N[C@H](C(=O)N[C@@H](CC(=O)O)C(=O)CSCc2ccccc2)C(C)C)c1,3200,6000,6600,48,10000
COc1ccc(OC)c(CC(=O)N[C@H](C(=O)N[C@@H](CC(=O)O)C(=O)CSCc2c(F)cccc2Cl)C(C)C)c1,2500,5000,2400,73,9000
CCOc1ccc(OCC(=O)OC(C)C)cc1CC(=O)N[C@H](C(=O)N[C@@H](CC(=O)O)C(=O)CSCc1c(F)cccc1Cl)C(C)C,2300,4200,6300,94,300
COc1cccc(CC(=O)N[C@H](C(=O)N[C@@H](CC(=O)O)C(=O)CSCc2ccccc2)C(C)C)c1,3100,14000,14000,210,60000
COc1ccc(OC)c(CC(=O)N[C@H](C(=O)N[C@@H](CC(=O)O)C(=O)CSCC2CCCCC2)C(C)C)c1,> 10000,1800,2000,63,19000
CC(C)[C@H](NC(=O)Cc1ccccc1)C(=O)N[C@@H](CC(=O)O)C(=O)CSCc1ccccc1,8400,22000,22500,750,–
COc1ccc(OC)c(CC(=O)N[C@H](C(=O)N[C@@H](CC(=O)O)C(=O)CSCC(C)C)C(C)C)c1,1800,2600,7800,130,32000
COc1ccc(Br)cc1CC(=O)N[C@H](C(=O)N[C@@H](CC(=O)O)C(=O)CSCc1ccccc1)C(C)C,3100,3100,2300,60,9000

# Molecules with a lower IC50 [1], results first:
IC50 [1] [nM],IC50 [2] [nM],IC50 [3] [nM],IC50 [4] [nM],IC50 [5] [nM],SMILES
120,1600,490,5,1000,COc1ccc(S(C)(=O)=O)cc1CC(=O)N[C@H](C(=O)N[C@@H](CC(=O)O)C(=O)CSCc1c(F)cccc1Cl)C(C)C
1500,860,8700,140,63000,CC(C)[C@H](NC(=O)c1cc(Br)cc(Br)c1)C(=O)N[C@@H](CC(=O)O)C(=O)CSCc1ccccc1
130,5900,2900,10,2000,COc1ccc(C(C)=O)cc1CC(=O)N[C@H](C(=O)N[C@@H](CC(=O)O)C(=O)CSCc1ccccc1)C(C)C
360,3800,810,5,5000,CCOc1ccc(OCC(=O)O)cc1CC(=O)N[C@H](C(=O)N[C@@H](CC(=O)O)C(=O)CSCc1c(F)cccc1Cl)C(C)C
1400,2600,3300,83,55000,CC(C)[C@H](NC(=O)c1cc2cc(F)ccc2[nH]1)C(=O)N[C@@H](CC(=O)O)C(=O)CSCc1ccccc1
8.4,1650,1500,1.8,14000,CC(C)[C@H](NC(=O)[C@H](C)NC(=O)[C@H](CC(=O)O)NC(=O)c1ccccc1)C(=O)N[C@@H](CC(=O)O)C(=O)CCCc1ccccc1
1700,6500,9300,53,700,CCOc1ccc(OCC(=O)OC)cc1CC(=O)N[C@H](C(=O)N[C@@H](CC(=O)O)C(=O)CSCc1c(F)cccc1Cl)C(C)C
87,190,130,–,> 100000,CC(=O)N[C@@H](CC(=O)O)C(=O)N[C@@H](CCC(=O)O)C(=O)N[C@H](C(=O)N[C@H](C=O)CC(=O)O)C(C)C
24,1800,3850,–,600,CCOc1ccc(/C=C/C(=O)OC)cc1CC(=O)N[C@H](C(=O)N[C@@H](CC(=O)O)C(=O)CSCc1c(F)cccc1Cl)C(C)C
